In US7148204B2, “Antisense modulation of bcl-x expression” (Isis Pharmaceuticala, Inc., priority 1998, dated 2006):
In the oligonucleotide strings, read from the 5' end, every base follows the letter of its sugar. An asterisk marks phosphorothioate; unmarked linkages are phosphodiester. Other units and linkages are bracketed, terminal groups are in braces. A string of capitals states the bases alone. e = 2'-O-(2-methoxyethyl) (MOE); [5mC] = 5-methylcytosine; d = 2'-deoxy (DNA)

Experiments:
HUVEC = experiment: Apoptosis of HUVEC (hypodiploid cells by flow cytometry); format: cell-based, human; settings: for increase in cellular DNA fragmentation over background: agent alone at low dose: staurosporine 2 nM, C6-ceramide 5 μM
Experimental: Human umbilical vein endothelial cells (HUVEC) were obtained from Clonetics (San Diego Calif.) and cultivated in endothelial growth medium (EGM) supplemented with 10% fetal bovine serum. Cells were used between passages 2 and 5 and were used at approximately 80% confluency. Cells were washed three times with pre-warmed (37° C.) Opti-MEM™. Oligonucleotides were premixed with 10 μg/ml Lipofectin™ in Opto-MEM™ at an oligonucleotide concentration of 50 nM ISIS 16009. Cells were incubated with oligonucleotide for 4 hours at 37° C. after which the medium was removed and replaced with standard growth medium. Treatment with C6-ceramide (Calbiochem, San Diego Calif.), staurosporine (Calbiochem), or z-VAD.fmk (Calbiochem), if any, was done 24 hours after oligonucleotide treatment. […] Apoptotic cells with fragmented DNA were identified by flow cytometry analysis of hypodiploid cells.

SEM-K2 xenograft cells = experiment: VP-16-induced apoptosis of xenograft cells (CPP32 DEVD-pNA cleavage, light scatter); format: in vivo, human SEM-K2 cells in SCID-NOD mice
Experimental: Xenografts were removed after sacrifice and mechanically dispersed into large volumes of medium. Leukocytes were purified by density gradient centrifugation and washed with medium before resuspending in 1 ml volumes at 1–5×10^6 cells/ml. Cells were incubated at 37° C. in 95% humidified air/5% CO2 for 2 hours prior to induction of apoptosis with 20 μg/ml VP-16 (Etoposide) over 24 hours. Each xenograft cell suspension treated with VP-16 was paired with a respective negative control. Apoptosis was assessed nonspecifically using quantification of light scatter changes; reduction in side scatter (due to chromatin condensation) and reduction in forward scatter (due to cell shrinkage) are early changes associated with apoptosis. Bimodal population distributions consisting of apoptotic and non-apoptotic cells could be measured respectively allowing estimation of an apoptotic index for treated and negative control. Fold increase in apoptosis was calculated from their ratio. More specific determination of apoptosis was achieved using the Apo-Alert Caspase-3 Colorimetric Assay Kit (Clontech, Palo Alto Calif.). This is a DEVD-specific caspase assay, a quantitative assay for the activity of caspase-3, a member of the caspase family thought to mediate apoptosis in most mammalian cell types. […] DEVD-dependent protease activity is assessed by detection of the free AFC or pNA cleaved from the substrates. […]

bcl-x = experiment: SCID-human leukemia model, bcl-x expression in SEM-K2 xenografts; format: in vivo, human SEM-K2 cells in SCID-NOD mice; settings: 14-day s.c. infusion 100 μg/day (5 mg/kg/day), quantitative flow cytometry, n=3
Experimental: 10^7 SEM-K2 cells in exponential phase of growth were injected subcutaneously into 8 SCID-NOD mice as a bolus (suspended in sterile saline). Engraftment and tumor formation occurred over a 2–3 week period. Micro Alzet pumps (Alza, Newark Del.) capable of delivering a continuous subcutaneous infusion over 14 days were used to deliver a dose of 100 μg per day (equivalent to 5 mg/kg) of ISIS 16009 and scrambled control ISIS 15691 into two groups of three animals, respectively. The remaining two animals received vehicle (sterile saline) only.
Mean reductions in expression of approximately 90% (n=3) compared to control (p<0.01) were measured using quantitative flow cytometry. This was compared to statistically insignificant (<20%, p<0.3) reductions in bcl-x expression by scrambled control oligonucleotide ISIS 15691 (n=3).

bcl-xs mRNA = experiment: RNase protection assay, bcl-xs mRNA in A549 cells; format: cell-based, human; set-up: concentration or dose not given beside the values; settings: RPA
Excerpt: (§1) The ribonuclease (RNase) protection assay is a sensitive and specific method for quantitating expression levels (Zinn, et al., Cell, 1983, 34:865–79). The method is based on the hybridization of a target RNA to an in vitro transcribed ^32P-labeled anti-sense RNA probe from a DNA template. RNase treatment follows, resulting in degradation of single-stranded RNA and excess probe. The probe and target RNA are resolved by denaturing polyacrylamide gel electrophoresis with the “protected” probe visualized using autoradiography or beta imaging equipment. Template sets can be purchased (PharMingen Inc., San Diego Calif.) which contain a series of biologically relevant templates, each of distinct length and each representing a sequence in a distinct mRNA species. Each template set is capable of detecting up to 11 unique gene messages in a single reaction mix in addition to one or more housekeeping genes, L32 and GAPDH, which serve as internal controls. These template sets allow for multiple determinations to be made from a single sample. Multi-probe RPA can be performed on total RNA preparations derived by standard methods, without further purification of poly-A+ RNA.
(§2) Oligonucleotides were evaluated for their respective effects on bcl-xs and bcl-xl mRNA levels along with total bcl-x mRNA levels, using the RIBOQUANT™ RNase protection kit (Pharmingen, San Diego Calif.). All assays were performed according to manufacturer's protocols. Briefly, multi-probe DNA template sets were used to generate antisense RNA transcripts radiolabeled with […]. The template set used for apoptosis genes was the human hAPO-2 set. These radiolabeled probes were hybridized overnight with typically 10 μg of total cellular RNA. The reaction mixture was then digested with single-strand RNases to generate the protected fragments which were electrophoresed through a 5% acrylamide/urea gel. Protected bands were visualized and quantitated using a PhosphorImager (Molecular Dynamics, Sunnyvale Calif.).
(§3) Human bcl-x has two forms, a long form known as bcl-xl and a short form known as bcl-xs. […] The protein of bcl-xl is similar in size and structure to bcl-2, and could inhibit cell death upon growth factor withdrawal. The protein of bcl-xs is 63 amino acids shorter than bcl-xl. It could inhibit the bcl-2 function, thus promoting programmed cell death (apoptosis). Oligonucleotides were evaluated for their respective effects on bcl-xs and bcl-xl mRNA levels along with total bcl-x mRNA levels, using the RIBOQUANT™ RNase protection kit (Pharmingen, San Diego Calif.). All assays were performed according to manufacturer's protocols.

bcl-xl mRNA = experiment: RNase protection assay, bcl-xl mRNA in A549 cells; format: cell-based, human; settings: RPA
Excerpt: as §1, §2, §3
(§4) These oligonucleotides were tested for their inhibitory effects on bcl-xl and bcl-xs mRNA levels in A549 cells, as detected by RPA analysis. Oligonucleotide concentration was 200 nM.

total bcl-x mRNA = experiment: RNase protection assay, total bcl-x mRNA in A549 cells; format: cell-based, human; set-up: % CONTROL total bcl-x: concentration or dose not given beside the values; settings: RPA
Excerpt: as §1, §2, §3

bcl-xs/bcl-xl mRNA ratio = experiment: RNase protection assay, bcl-xs/bcl-xl mRNA ratio in A549 cells; format: cell-based, human; settings: A549 cells, RPA; for bcl-xs/bcl-xl (%): no oligo 17.56; for bcl-xs/bcl-xl* (change from the control ratio 17.56): no oligo = 1
Excerpt: as §1, §2, §3, §4

human bcl-x mRNA = experiment: Northern blot analysis of bcl-x mRNA levels in A549 cells; format: cell-based; settings: 200 nM chimeric oligonucleotide
Experimental: Eighteen hours after antisense treatment, cell monolayers were washed twice with cold PBS and lysed in 1 mL RNAZOL™ (TEL-TEST “B” Inc., Friendswood, Tex.). Total RNA was prepared following manufacturer's recommended protocols. Twenty micrograms of total RNA was fractionated by electrophoresis through 1.2% agarose gels containing 1.1% formaldehyde using a MOPS buffer system (AMRESCO, Inc. Solon, Ohio). RNA was transferred from the gel to HYBOND™-N+ nylon membranes (Amersham Pharmacia Biotech, Piscataway, N.J.) by overnight capillary transfer using a Northern/Southern Transfer buffer system (TEL-TEST “B” Inc., Friendswood, Tex.). RNA transfer was confirmed by UV visualization. Membranes were fixed by UV cross-linking using a STRATALINKER™ UV Crosslinker 2400 (Stratagene, Inc, La Jolla, Calif.).
Membranes were probed using QUICKHYB™ hybridization solution (Stratagene, La Jolla, Calif.) using manufacturer's recommendations for stringent conditions with an 822-base pair bcl-x specific probe prepared by PCR from bases 33–855 of human bcl-xl sequence (Boise et al., 1993, Cell 74:597–608; GenBank accession no. L20121). To normalize for variations in loading and transfer efficiency membranes were stripped and probed for glyceraldehyde-3-phosphate dehydrogenase (GAPDH) RNA (Clontech, Palo Alto, Calif.). Hybridized membranes were visualized and quantitated using a PHOSPHORIMAGER™ and IMAGEQUANT™ Software V3.3 (Molecular Dynamics, Sunnyvale, Calif.). Data was normalized to GAPDH levels in untreated controls.
Oligonucleotides were tested by Northern blot analysis as described in Example 14. Oligonucleotides were tested in A549 cells at a concentration of 400 nM. The results are Table 2:
Oligonucleotides were tested by Northern blot analysis as described in Example 14. Chimeric oligonucleotides were in A549 cells at a concentration of 200 nM. Where present, “N.D.” indicates “not determined”.

CEM-C7 cells = experiment: Viable cell counts of CEM cells (propidium iodide exclusion, flow cytometry); format: cell-based, human; settings: CEM cells; for viability by propidium iodide exclusion: 20 μM electroporation
Experimental: CEM-C7 cells (Norman et al., 1978), a glucocortocoid sensitive clone of the human T-lymphoblastic cell line CEM, were cultured between 5×10^4 to 10^6 cells/ml in RPMI 1640 medium containing 10% heat-inactivated fetal bovine serum (FBS), streptomycin, penicillin G, 15 mM HEPES, 2 mM sodium pyruvate, at 37° C. in a humid, 5% CO2 incubator. Viable cell counts were performed by propidium iodide staining and flow cytometry.
CEM-C7 cells were electroporated with the indicated concentrations of oligonucleotides at 150 volts, 1,700 microFaraday (μF), and a resistance setting of 5 with a BTX electroporation apparatus (Genetronics, San Diego, Calif.) in 2-mm gap cuvettes containing 5×10^6 cells in 200 μl RPMI plus 20% FBS on ice. Cells were left on ice for 10 minutes, then plated in 5 ml complete media.

bcl-xl protein = experiment: Immunoblot of bcl-xl protein in CEM cells; format: cell-based, human
Experimental: Postnuclear detergent lysates were prepared as described by Reed et al. (Cancer Res., 1991, 51, 6529–6538), and the protein concentration was determined using a Bradford method protein assay kit (Bio-Rad, Hercules, Calif.). Protein (20 μg) was loaded in each lane, followed by electrophoresis on a 12% sodium dodecyl sulfate-polyacrylamide gel, followed by immunoblotting (Winston et al., 1993). The primary antibody was a 0.4 μg/ml dilution of the mouse monoclonal anti-human bcl-2 (clone 124, Dako, Carpinteria, Calif.), a 4.0 μg/ml dilution of the rabbit polyclonal anti-human bcl-xs/l (Dako), or a 0.3 μg/ml dilution of rabbit polyclonal anti-human Bax (N-20, Santa Cruz Biotechnology, Santa Cruz, Calif.). For development and STORM fluorescent imaging, the secondary antibody was peroxidase-conjugated sheep anti-mouse or donkey anti-rabbit (Amersham, Little Chalfort, UK). Chemiluminescence imaging and quantification were preformed using the STORM instrument and ImageQuant software (Molecular Dynamics, Sunnyvale, Calif.).

Row | Compound | % CONTROL bcl-xs (bcl-xs mRNA) [%] | % CONTROL bcl-xl (bcl-xl mRNA) [%] | % CONTROL total bcl-x (total bcl-x mRNA) [%] | bcl-xs/bcl-xl (%) (bcl-xs/bcl-xl mRNA ratio) | bcl-xs/bcl-xl* (change from the control ratio 17.56) (bcl-xs/bcl-xl mRNA ratio) | other results
1 | CCCCCCCCCCCCC/C=C/[C@@H](O)[C@H](CO)NC(=O)CCCCC [C6-ceramide] |  |  |  |  |  | increase in cellular DNA fragmentation over background (HUVEC): did not cause a significant increase
2 | GACATCCCTTTCCCCCTCGG (chemistry not given here) [ISIS 15691] |  |  |  |  |  | apoptotic index (light scatter) (SEM-K2 xenograft cells; 20 μg/ml VP-16): not seen; change in VP-16-induced apoptosis (SEM-K2 xenograft cells; 20 μg/ml VP-16, n=3): very little change; mean reduction in bcl-x expression (bcl-x): < 20%
3 | 16012 (antisense e[5mC]*e[5mC]*eA*eG*e[5mC]*dC*dG*dC*dC*dG*dT*dT*dC*dT*dC*e[5mC]*eT*eG*eG*eA) [compound 16012] | 48 | 63 | 61 | 13.17 | 0.75 | % CONTROL (bcl-x mRNA levels) (human bcl-x mRNA): 30%; % INHIB (bcl-x mRNA levels) (human bcl-x mRNA): 70%
4 | 16013 (antisense eT*eA*eG*eA*eG*dT*dT*dC*dC*dA*dC*dA*dA*dA*dA*eG*eT*eA*eT*e[5mC]) [compound 16013] | 60 | 83 | 82 | 12.46 | 0.71 | % CONTROL (bcl-x mRNA levels) (human bcl-x mRNA): 85%; % INHIB (bcl-x mRNA levels) (human bcl-x mRNA): 15%
5 | COC(=O)CC[C@H](NC(=O)[C@H](CC(=O)OC)NC(=O)OCc1ccccc1)C(=O)N[C@H](C(=O)N[C@@H](CC(=O)OC)C(=O)CF)C(C)C [z-DEVD.fmk] |  |  |  |  |  | apoptosis caused by bcl-x inhibition, or bcl-x plus staurosporine or ceramide (HUVEC; caspase inhibitor treatment): prevented
6 | 16968 (antisense e[5mC]*eT*e[5mC]*e[5mC]*eG*dA*dT*dG*dT*dC*dC*dC*dC*dT*dC*eA*eA*eA*eG*eT) [compound 16968] | 20 | 15 | 21 | 20.18 | 1.15 | 
7 | CN[C@@H]1C[C@H]2O[C@@](C)([C@@H]1OC)n1c3ccccc3c3c4c(c5c6ccccc6n2c5c31)C(=O)NC4 [staurosporine] |  |  |  |  |  | increase in cellular DNA fragmentation over background (HUVEC): did not cause a significant increase
8 | 22785 (antisense eG*e[5mC]*e[5mC]*eG*e[5mC]*e[5mC]*eG*eT*eT*e[5mC]*eT*e[5mC]*e[5mC]*eT*eG*eG*eA*eT*e[5mC]*e[5mC]) [compound 22785] | 248 | 53 | 83 | 80.14 | 4.56 | 
9 | 5′-TCACATTGGCGCTTAGCCGT-3′ (chemistry not given here) [ISIS 16971, reference compound] |  |  |  |  |  | viability by propidium iodide exclusion (CEM-C7 cells; 48 hours): 70%; viability by propidium iodide exclusion (CEM-C7 cells; 72 hours): 82%; viable cell count at the highest concentration (CEM-C7 cells; 20 hours after electroporation): started to decrease; level of bcl-xl protein (bcl-xl protein): no effect
